Measured values as given in patent publication US20250332096A1, “BEVERAGE FORMULATION AND METHOD OF PROMOTING CELLULAR HYDRATION BY ENHANCING INTRACELLULAR PERMEATION” (Eastpond Laboratories Limited, priority 2024, published 2025).

Assays:
[1] = Water bonding detected by NIR spectroscopy; format: physicochemical; settings: wavelength region 900-1200 nm; 0.1%-5% w/w
[2] = Water bonding detected by NIR spectroscopy; format: physicochemical; settings: for water-bond interactions, second-derivative NIR spectra: 0.1%-5% w/w
Procedure: Hydration bond energies in pure waters and solutions of the same waters containing cyclodextrin compounds were assayed using IR spectroscopy in the near and middle infrared ranges. To record linear signals throughout an entire wavelength range, attenuation from water absorbance was minimized with a short optical length cuvette. NIR range spectra were registered on a FOSS NIR Systems, Inc. 6500 spectrometer and Sample Transport Module (STM) using a 1 mm-sized cuvette. Transmission spectra were collected from 1100-2498 nm using a lead sulfide (PbS) detector and Vision 2.51 software (2001; FOSS NIRSystems, Inc.) A Perkin-Elmer Spectrum 400 FT-NIR/FT-IR spectrometer and UATR (Universal Attenuated Total Reflectance; ZnSe-diamond crystal, 1× flat top plate) sample handling unit were used to obtain spectra across 2500-15385 nm (reported as 4000-650 cm^1). Measurements were performed at 24 C using a triglycine-sulfate (TGS) detector and Spectrum ES 6.3.2 software (PerkinElmer, 2008). Three samples of water were used in the present study. A first water sample was purified by reverse osmosis, carbon filtration, ultraviolet light exposure, membrane filtration to 0.2 micron absolute, and ozonation. Second and third water samples were not purified. […] No. CYL-2322. • β-cyclodextrin (βCD also denoted as BCD). Lot. No. CYL-2518/2. • γ-cyclodextrin (γCD also denoted as GCD), Lot. No. […] No. […] No. CYL-2258. • carboxymethyl-β-cyclodextrin (CMBCD), Lot. No. CYL-2576. • quaternary-ammonium-β-cyclodextrin (QABCD).

[3] = system: C. elegans; assay: C. elegans longevity in hydration modified water (Example 5); format: in vivo; settings: for Animals alive, % of initial: 0.1% w/w in nutritive media, USA I water; for effect on C. elegans survival: added to the culture media
Procedure: C. elegans nematodes were grown in petri-type dishes containing normal nutrient liquid media prepared alternatively with USA I water (described in Example 2) lacking any further additive component (control) or the same water supplemented with a parent α-, β-, or γ-cyclodextrin, and/or a bioactive agent, as an active component of cellular hydration. Fifty ±3 worms were transferred to each dish. Each condition was repeated in triplicate. Experiments were repeated for USA II and BP I waters described in Example 2.
• A. Addition of parent α-, β- and γ-cyclodextrins. • B. Addition of L-arginine and nicotinamide. • C. Addition of inclusion complexes of cyclodextrins with L-arginine and nicotinamide.

[4] = pH of test solutions; format: physicochemical; settings: purified water
Procedure: (§1) 1:1 mol/mol stoichiometry complexes were prepared for the experiment. Nicotinic acid/alpha-CD complex was prepared by dissolving 11.22 g nicotinic acid and 98.63 g alpha-CD (89.66 g on dry basis) in 700 ml purified water. Nicotinamide/alpha-CD complex was prepared by dissolving 5.57 g nicotinamide and 49.3 g alpha-CD (44.4 g on dry basis) in 350 ml purified water and L-arginine/alpha-CD complex was prepared by dissolving 15.18 g L-arginine and 94.26 g alpha-CD (85.69 g on dry basis) in 700 ml purified water. Further, for all the three complexes, the liquid was frozen in dry ice bath and lyophilized. The dry lyophilizate was ground and sieved.
(§2) Clarity, pH, conductivity, density, viscosity, turbidity, surface tension and osmolality were determined in solutions prepared with purified water. […]

[5] = Viscosity of test solutions; format: physicochemical; settings: purified water, 2.00%
Procedure: as §1
Clarity, pH, conductivity, density, viscosity, turbidity, surface tension and osmolality were determined in solutions prepared with purified water.

[6] = Conductivity of test solutions; format: physicochemical; settings: purified water
Procedure: as §1, §2

[7] = Turbidity of test solutions; format: physicochemical; settings: purified water (reference)
Procedure: as §1, §2

[8] = Visual inspection (clarity) of test solutions; format: physicochemical; settings: purified water
Procedure: as §1, §2

[9] = Density measurements of test solutions; format: physicochemical
Procedure: The current study further manifests the density measurements in a cyclodextrin concentration dependent manner.
Water samples used were bottled water and tap water; wherein the tap water comprises the following impurities and properties: Free active chlorine (0.18 mg/1), Chloride (24 mg/1), Iron (6 μg/1), Manganese (2 μg/1), Nitrate (9 mg/1), Nitrite (<0.03 mg/1), Ammonium (<0.04 mg/1), Hardness of water (122 mg/l CaO), Conductivity (442 μS/cm) and pH 8. Purified water was produced by removal of dissolved ions by Merck/Millipore Synergy® Water Purification System at Cyclolab. The water quality produced Type 1 water (18.2 MΩ·cm at 25° C. ultrapure water) from pretreated water.
as §1, §2
However, it may not be established exactly which ionic species (Mg2+, Ca2+, Na+) causes this perturbation.

[10] = Surface tension of test solutions; format: physicochemical; settings: purified water
Procedure: as §1, §2

[11] = system: Wheat seeds (Triticum aestivum); assay: Wheat seed germination; format: in vivo; settings: 0.5% w/w in USA I water
Procedure: Wheat seeds (Triticum aestivum) were germinated using USA I, USA II, and BP I waters described for Example 2. Germination rate using un-supplemented (control) water was compared to that with the same water variously supplemented with a cyclodextrin component, and/or a bioactive agent, as an active component of cellular hydration. For each condition, ten seeds were placed in continuous water contact in a Petri-type dish kept at 25 C in 12 hr light/dark cycles. Photometric images were recorded on days 1 to 6 after seeding. The percentage of seeds germinated was calculated and compared as a function of time and of the applied additive concentrations.
Water samples for seed germination were used alone with no additive, or containing cyclodextrins, or containing clathrate inclusion complexes of cyclodextrin with L-arginine or with nicotinamide (both obtained from Sigma Chemical Co.; St. Louis, MO), or with L-carnitine (from Lonza AG; Switzerland). […] Additive solutions were prepared fresh on the day of germination start.
Parent cyclodextrins α-cyclodextrin (ACD), β-cyclodextrin (BCD), and γ-cyclodextrin (GCD), were obtained from Wacker Chemie (Munich, Germany). The following derivatized cyclodextrins were obtained from Cyclolab Ltd. (Budapest, Hungary): hydroxypropylated-beta-cyclodextrin (DS-3)(HPBCD), carboxymethylated-β-cyclodextrin (DS-3.5)(CMBCD), 2-hydroxy-3-N,N,N-trimethylamino)propyl-β-cyclodextrin chloride (DS-3.6)(QABCD).
Germination kinetics in control and additive-modified water under identical conditions were quantified as the percentage of the seeds having a sprout. Each determination consisted of 100 seeds for each parameter. Results are reported in Table 5, below, and in FIGS. 11-13. • A) Cyclodextrin/L-Arg Inclusion Complex Increases Seed Germination.

Molecule: 2-hydroxy-3-N,N,N-trimethylamino)propyl-β-cyclodextrin chloride [Quaternary-ammonium-β-Cyclodextrin]
- water-bond interactions, second-derivative NIR spectra [1]: significantly modified
- water-bond interactions, second-derivative NIR spectra ([2]; 1200-1500 nm): significantly modified
- water-bond interactions, second-derivative NIR spectra ([2]; 1620-1710 nm): significantly modified
- water-bond interactions, second-derivative NIR spectra ([2]; 2170-2370 nm): further significantly modified
- modification of micro-structure of hydrogen bonded cluster systems in bulk water (spectral changes) ([2]; comparison among cyclodextrin-treated water samples): largest
- Animals alive, % of initial ([3]; life span 10 days): 98 % of initial
- Animals alive, % of initial ([3]; life span 15 days): 13 % of initial
- Animals alive, % of initial ([3]; life span 18 days): 2 % of initial

Molecule: OC[C@H]1O[C@@H]2O[C@H]3[C@H](O)[C@@H](O)[C@@H](O[C@H]4[C@H](O)[C@@H](O)[C@@H](O[C@H]5[C@H](O)[C@@H](O)[C@@H](O[C@H]6[C@H](O)[C@@H](O)[C@@H](O[C@H]7[C@H](O)[C@@H](O)[C@@H](O[C@H]8[C@H](O)[C@@H](O)[C@@H](O[C@H]9[C@H](O)[C@@H](O)[C@@H](O[C@H]1[C@H](O)[C@H]2O)O[C@@H]9CO)O[C@@H]8CO)O[C@@H]7CO)O[C@@H]6CO)O[C@@H]5CO)O[C@@H]4CO)O[C@@H]3CO [Gamma Cyclodextrin, γ-cyclodextrin]
- pH ([4]; 0.05%): 6.82
- pH ([4]; 0.10%): 6.79
- pH ([4]; 1.00%): 6.87
- pH ([4]; 2.00%): 6.77
- Viscosity (25 C.) [5]: 0.97 cP
- Conductivity ([6]; 0.05%): 25.0 μS · cm^−1
- Conductivity ([6]; 0.10%): 25.0 μS · cm^−1
- Conductivity ([6]; 1.00%): 27.0 μS · cm^−1
- Conductivity ([6]; 2.00%): 27.0 μS · cm^−1
- number of animals surviving to old ages ([3]; after day 15, 0.1% w/w): significantly increased
- Animals alive, % of initial ([3]; life span 10 days): 100 % of initial
- Animals alive, % of initial ([3]; life span 15 days): 13 % of initial
- Animals alive, % of initial ([3]; life span 18 days): 2 % of initial
- Turbidity (Abs, λ = 410 nm) ([7]; 1.00%): 0.065 Abs
- Turbidity (Abs, λ = 410 nm) ([7]; 2.00%): 0.108 Abs
- Visual Inspection ([8]; 0.05%): clear
- Visual Inspection ([8]; 0.10%): clear
- Visual Inspection ([8]; 1.00%): hazy
- Visual Inspection ([8]; 2.00%): hazy
- Density (at 22 C.) ([9]; Tap water, 0.05%): 0.9997 ± 0.0007 g/cm³
- Density (at 22 C.) ([9]; Tap water, 0.10%): 1.0002 ± 0.0004 g/cm³
- Density (at 22 C.) ([9]; Tap water, 1.00%): 1.0035 ± 0.0007 g/cm³
- Density (at 22 C.) ([9]; Tap water, 2.00%): 1.0094 ± 0.0006 g/cm³
- Density (at 22 C.) ([9]; purified water, 0.05%): 0.995 ± 0.001 g/cm³
- Surface Tension ([10]; 0.05%): 72 mN · m^−1
- Surface Tension ([10]; 0.10%): 72 mN · m^−1
- Surface Tension ([10]; 1.00%): 73 mN · m^−1
- Surface Tension ([10]; 2.00%): 73 mN · m^−1

Molecule: CC(O)COC[C@H]1O[C@@H]2O[C@H]3[C@H](O)[C@@H](O)[C@@H](O[C@H]4[C@H](O)[C@@H](O)[C@@H](O[C@H]5[C@H](O)[C@@H](O)[C@@H](O[C@H]6[C@H](O)[C@@H](O)[C@@H](O[C@H]7[C@H](O)[C@@H](O)[C@@H](O[C@H]8[C@H](O)[C@@H](O)[C@@H](O[C@H]1[C@H](O)[C@H]2O)O[C@@H]8COCC(C)O)O[C@@H]7COCC(C)O)O[C@@H]6COCC(C)O)O[C@@H]5COCC(C)O)O[C@@H]4COCC(C)O)O[C@@H]3COCC(C)O (stereo partly drawn) [HP-β-Cyclodextrin, 2-hydroxypropyl-β-cyclodextrin]
- water-bond interactions, second-derivative NIR spectra [1]: further significantly modified
- water-bond interactions, second-derivative NIR spectra ([2]; 1200-1500 nm): significantly modified
- water-bond interactions, second-derivative NIR spectra ([2]; 1620-1710 nm): significantly modified
- water-bond interactions, second-derivative NIR spectra ([2]; 2170-2370 nm): significantly modified
- Animals alive, % of initial ([3]; life span 10 days): 96 % of initial
- Animals alive, % of initial ([3]; life span 15 days): 17 % of initial
- Animals alive, % of initial ([3]; life span 18 days): 0 % of initial

Molecule: N=C(N)NCCC[C@H](N)C(=O)O [L-arginine, reference compound]
- effect on C. elegans survival [3]: little effect

Molecule: NC(=O)c1cccnc1 [nicotinamide, reference compound]
- wheat seed germination, percentage of the seeds having a sprout ([11]; day 0): 0%
- wheat seed germination, percentage of the seeds having a sprout ([11]; day 1): 0%
- wheat seed germination, percentage of the seeds having a sprout ([11]; day 2): 4%
- wheat seed germination, percentage of the seeds having a sprout ([11]; day 3): 10%
- wheat seed germination, percentage of the seeds having a sprout ([11]; day 4): 60%
- effect on C. elegans survival [3]: little effect

Molecule: OC[C@H]1O[C@@H]2O[C@H]3[C@H](O)[C@@H](O)[C@@H](O[C@H]4[C@H](O)[C@@H](O)[C@@H](O[C@H]5[C@H](O)[C@@H](O)[C@@H](O[C@H]6[C@H](O)[C@@H](O)[C@@H](O[C@H]7[C@H](O)[C@@H](O)[C@@H](O[C@H]8[C@H](O)[C@@H](O)[C@@H](O[C@H]1[C@H](O)[C@H]2O)O[C@@H]8CO)O[C@@H]7CO)O[C@@H]6CO)O[C@@H]5CO)O[C@@H]4CO)O[C@@H]3CO [β-Cyclodextrin, β-cyclodextrin]
- Animals alive, % of initial ([3]; life span 10 days): 100 % of initial
- Animals alive, % of initial ([3]; life span 15 days): 18 % of initial
- Animals alive, % of initial ([3]; life span 18 days): 0 % of initial

Molecule: carboxymethyl-β-cyclodextrin
- water-bond interactions, second-derivative NIR spectra [1]: further significantly modified
- water-bond interactions, second-derivative NIR spectra ([2]; 1200-1500 nm): further significantly modified
- water-bond interactions, second-derivative NIR spectra ([2]; 1620-1710 nm): significantly modified
- water-bond interactions, second-derivative NIR spectra ([2]; 2170-2370 nm): significantly modified
- Animals alive, % of initial ([3]; life span 10 days): 94 % of initial
- Animals alive, % of initial ([3]; life span 15 days): 11 % of initial
- Animals alive, % of initial ([3]; life span 18 days): 0 % of initial
